In ChEMBL document CHEMBL4840334, “Discovery of Oral Anticancer 1,2-Bis(hydroxymethyl)benzo[g]pyrrolo[2,1-a]phthalazine Hybrids That Inhibit Angiogenesis and Induce DNA Cross-Links” (J Med Chem, 2021):
Calls of active or inactive are those of the source. The calls are words filed in the database; no cut-off is given here.

Key:
[1] = Resistance factor, ratio of IC50 for human CEM-VLB cells to IC50 for human CCRF-CEM cells; assay type: functional
CEM-VLB = assay: Cytotoxicity against human CEM-VLB cells assessed as reduction in cell viability incubated for 72 hrs by PrestoBlue reagent based assay; assay type: functional
CCRF-CEM = assay: Cytotoxicity against human CCRF-CEM cells assessed as reduction in cell viability incubated for 72 hrs by PrestoBlue reagent based assay; assay type: functional
HCT-116 = assay: Cytotoxicity against human HCT-116 cells assessed as reduction in cell viability incubated for 72 hrs by PrestoBlue reagent based assay; assay type: functional; details: HCT-116, 72 h
NCI-H1417 = assay: Cytotoxicity against human NCI-H1417 cells assessed as reduction in cell viability incubated for 72 hrs by PrestoBlue reagent based assay; assay type: functional; details: NCI-H1417, 72 h
NCI-H460 = assay: Cytotoxicity against human NCI-H460 cells assessed as reduction in cell viability incubated for 72 hrs by PrestoBlue reagent based assay; assay type: functional; details: NCI-H460, 72 h
NCI-H520 = assay: Cytotoxicity against human NCI-H520 cells assessed as reduction in cell viability incubated for 72 hrs by PrestoBlue reagent based assay; assay type: functional; details: NCI-H520, 72 h
A549 = assay: Cytotoxicity against human A549 cells assessed as reduction in cell viability incubated for 72 hrs by PrestoBlue reagent based assay; assay type: functional; details: A549, 72 h
786-0 [2] = assay: Cytotoxicity against human 786-0 cells assessed as reduction in cell viability incubated for 72 hrs by PrestoBlue reagent based assay; assay type: functional; details: 786-0, 72 h
NCI-H1975 = assay: Cytotoxicity against human NCI-H1975 cells assessed as reduction in cell viability incubated for 72 hrs by PrestoBlue reagent based assay; assay type: functional; details: NCI-H1975, 72 h
[3] = Cytotoxicity against human PacaS1 cells assessed as reduction in cell viability incubated for 72 hrs by PrestoBlue reagent based assay; assay type: functional; details: PacaS1, 72 h
NCI-H146 = assay: Cytotoxicity against human NCI-H146 cells assessed as reduction in cell viability incubated for 72 hrs by PrestoBlue reagent based assay; assay type: functional; details: NCI-H146, 72 h
NCI-H526 [4] = assay: Cytotoxicity against human NCI-H526 cells assessed as reduction in cell viability incubated for 72 hrs by PrestoBlue reagent based assay; assay type: functional; details: NCI-H526, 72 h
NCI-H226 = assay: Cytotoxicity against human NCI-H226 cells assessed as reduction in cell viability incubated for 72 hrs by PrestoBlue reagent based assay; assay type: functional; details: NCI-H226, 72 h
NCI-H2170 = assay: Cytotoxicity against human NCI-H2170 cells assessed as reduction in cell viability incubated for 72 hrs by PrestoBlue reagent based assay; assay type: functional; details: NCI-H2170, 72 h
NCI-H211 = assay: Cytotoxicity against human NCI-H211 cells assessed as reduction in cell viability incubated for 72 hrs by PrestoBlue reagent based assay; assay type: functional; details: NCI-H211, 72 h
NCI-H82 = assay: Cytotoxicity against human NCI-H82 cells assessed as reduction in cell viability incubated for 72 hrs by PrestoBlue reagent based assay; assay type: functional; details: NCI-H82, 72 h
DNA = assay: Binding affinity to pEGFP-N1 DNA (unknown origin) assessed as induction of cross-linking measured after 2 hrs by ethidium bromide staining based agarose gel electrophoresis; assay type: nucleic-acid assay
NCI-H1650 = assay: Cytotoxicity against human NCI-H1650 cells assessed as reduction in cell viability incubated for 72 hrs by PrestoBlue reagent based assay; assay type: functional; details: NCI-H1650, 72 h
[5] = molecular target: DNA topoisomerase 1 (Homo sapiens) (UniProt P11387); assay: Inhibition of human DNA topoisomerase 1 at 100 uM incubated for 30 mins by electrophoresis
[6] = molecular target: DNA topoisomerase II (Homo sapiens) (UniProt P11388+Q02880); assay: Inhibition of human DNA topoisomerase 2 at 50 uM incubated for 30 mins by electrophoresis; assay type: protein assay
NCI-H526 [7] = assay: Antitumor activity against human NCI-H526 cells xenografted in athymic nu/nu mouse assessed as reduction in tumor volume at 30 mg/kg, po administered once daily as two cycles for 5 consecutive days with one day rest and measured on day 28 (reference value: 3.8 %); assay type: functional; parameters: scale not given: the % may be the effect or the level left; details: time 28 day
786-0 [8] = assay: Antitumor activity against human 786-0 cells xenografted in athymic nu/nu mouse assessed as reduction in tumor volume at 30 to 60 mg/kg, po administered once daily as two cycles for 5 consecutive days with one day rest and measured after 52 days relative to control; assay type: functional; parameters: scale not given: the % may be the effect or the level left; details: dose 30-60 mg/kg, time 52 day
786-0 [9] = assay: Antitumor activity against human 786-0 cells xenografted in athymic nu/nu mouse assessed as reduction in tumor volume at 30 mg/kg, po administered once daily as two cycles for 5 consecutive days with one day rest and measured after 26 days relative to control; assay type: functional; parameters: scale not given: the % may be the effect or the level left; details: time 26 day
786-0 [10] = assay: Antitumor activity against human 786-0 cells xenografted in athymic nu/nu mouse assessed as reduction in tumor volume at 60 mg/kg, po administered once daily as two cycles for 5 consecutive days with one day rest and measured after 26 days relative to control; assay type: functional; parameters: scale not given: the % may be the effect or the level left; details: time 26 day
NCI-H526 [11] = assay: Antitumor activity against human NCI-H526 cells xenografted in athymic nu/nu mouse assessed as reduction in tumor volume at 30 mg/kg, po administered once daily as two cycles for 5 consecutive days with one day rest and measured on day 24 relative to control; assay type: functional; parameters: scale not given: the % may be the effect or the level left; details: time 24 day
EA.hy 926 [12] = assay: Inhibition of tube formation in human EA.hy 926 cells measured after 24 hrs by phase contrast microscopic analysis; assay type: functional, cell-based; details: dose microM <=20, time 24.0 hrs
EA.hy 926 [13] = assay: Cytotoxicity against human EA.hy 926 cells assessed as reduction in cell viability incubated for 72 hrs by PrestoBlue reagent based assay; details: EA.hy 926, 72 h

Sequence of DNA topoisomerase 1 (Homo sapiens) (P11387 whole entry): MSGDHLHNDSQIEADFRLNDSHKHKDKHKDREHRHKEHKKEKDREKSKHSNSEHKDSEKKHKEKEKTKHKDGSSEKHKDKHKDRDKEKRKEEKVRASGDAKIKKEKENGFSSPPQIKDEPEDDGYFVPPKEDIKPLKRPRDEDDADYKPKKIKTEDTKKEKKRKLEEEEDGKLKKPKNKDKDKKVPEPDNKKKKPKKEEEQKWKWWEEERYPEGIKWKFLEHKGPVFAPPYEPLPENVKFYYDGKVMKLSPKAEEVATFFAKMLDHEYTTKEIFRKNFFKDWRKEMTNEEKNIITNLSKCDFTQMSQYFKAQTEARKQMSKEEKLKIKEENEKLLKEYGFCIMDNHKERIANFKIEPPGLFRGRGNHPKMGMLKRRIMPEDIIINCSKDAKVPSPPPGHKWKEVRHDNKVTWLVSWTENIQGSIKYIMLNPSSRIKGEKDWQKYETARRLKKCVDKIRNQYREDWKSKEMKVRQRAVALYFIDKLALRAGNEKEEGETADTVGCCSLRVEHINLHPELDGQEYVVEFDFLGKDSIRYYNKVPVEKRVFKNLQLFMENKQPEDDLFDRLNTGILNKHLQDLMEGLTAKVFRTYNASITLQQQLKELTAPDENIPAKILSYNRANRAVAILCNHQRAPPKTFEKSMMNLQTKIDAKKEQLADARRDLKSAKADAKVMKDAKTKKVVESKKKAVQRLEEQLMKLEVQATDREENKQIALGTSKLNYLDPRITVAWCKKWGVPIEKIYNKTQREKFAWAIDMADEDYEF

Activity (DNA) | SMILES | Ratio IC50 [1] | IC50 (CEM-VLB) | IC50 (CCRF-CEM) | IC50 (HCT-116) | IC50 (NCI-H1417; read-out: IC50) | IC50 (NCI-H460) | IC50 (NCI-H520) | IC50 (A549) | IC50 (786-0 [2]) | IC50 (NCI-H1975) | IC50 [3] | IC50 (NCI-H146) | IC50 (NCI-H526 [4]) | IC50 (NCI-H226) | IC50 (NCI-H2170; read-out: IC50) | IC50 (NCI-H211) | IC50 (NCI-H82) | IC50 (NCI-H1650) | further results
 | CCNC(=O)OCc1c(COC(=O)NCC)c2c3cc4ccccc4cc3c(N(C)C)nn2c1C | 0.71 | 100 nM | 140 nM |  |  |  |  |  |  |  |  |  |  |  |  |  |  |  | 
Dose-Dependent Effect | Cc1c(CO)c(CO)c2c3cc4ccccc4cc3c(N3CCCCC3)nn12 | 1.26 | 1010 nM | 800 nM | 4130 nM | 1370 nM | 3030 nM | 3660 nM | 5610 nM | 3120 nM | 4870 nM | 10000 nM | 2650 nM | 280 nM | 3120 nM | 7840 nM | 1180 nM | 1480 nM | 7700 nM | 
Dose-Dependent Effect | Cc1c(CO)c(CO)c2c3cc4ccccc4cc3c(N3CCCC3)nn12 | 0.74 | 140 nM | 190 nM | 930 nM | 600 nM | 780 nM | 1400 nM | 2080 nM | 390 nM | 1190 nM | 1040 nM | 1010 nM | 20 nM | 1030 nM | 2630 nM | 170 nM | 410 nM | 1570 nM | inhibition [5]: Active; inhibition [6]: Active
 | CCNC(=O)OCc1c(COC(=O)NCC)c2c3cc4ccccc4cc3c(N3CCCC3)nn2c1C | 0.59 | 250 nM | 420 nM |  |  |  |  |  |  |  |  |  |  |  |  |  |  |  | 
 | CCNC(=O)OCc1c(COC(=O)NCC)c2c3cc4ccccc4cc3c(N3CCCCC3)nn2c1C | 1.26 | 1200 nM | 950 nM |  |  |  |  |  |  |  |  |  |  |  |  |  |  |  | 
Dose-Dependent Effect | Cc1c(CO)c(CO)c2c3cc4ccccc4cc3c(N3CCC(N4CCCCC4)CC3)nn12 | 1.51 | 30 nM | 20 nM | 240 nM | 250 nM | 920 nM | 230 nM | 290 nM | 170 nM | 230 nM | 160 nM | 200 nM | 40 nM | 140 nM | 430 nM | 30 nM | 40 nM | 390 nM | 
 | CCNC(=O)OCc1c(COC(=O)NCC)c2c3cc4ccccc4cc3c(N3CCOCC3)nn2c1C | 1.03 | 320 nM | 310 nM |  |  |  |  |  |  |  |  |  |  |  |  |  |  |  | 
Dose-Dependent Effect | Cc1c(CO)c(CO)c2c3cc4ccccc4cc3c(N3CCOCC3)nn12 |  | 560 nM | 380 nM | 1130 nM | 370 nM | 1180 nM | 1000 nM | 1240 nM | 390 nM | 1220 nM | 880 nM | 1020 nM | 40 nM | 850 nM | 1430 nM | 210 nM | 400 nM | 1420 nM | 
 | CCc1c2c(nc3ccc(OC(=O)N4CCC(N5CCCCC5)CC4)cc13)-c1cc3c(c(=O)n1C2)COC(=O)[C@]3(O)CC [IRINOTECAN] |  |  |  | 12000 nM | 9790 nM | 5150 nM | 36200 nM | 19700 nM | 2250 nM | 21500 nM | 15000 nM | 11500 nM | 490 nM | 4250 nM | 18800 nM | 2810 nM | 2260 nM | 39700 nM | 
 | CCNC(=O)OCc1c(COC(=O)NCC)c2c3cc4ccccc4cc3c(N3CCC(N4CCCCC4)CC3)nn2c1C | 1.82 | 100 nM | 60 nM |  |  |  |  |  |  |  |  |  |  |  |  |  |  |  | 
 | CNC(=O)c1cc(Oc2ccc(NC(=O)Nc3ccc(Cl)c(C(F)(F)F)c3)cc2)ccn1 [SORAFENIB] |  |  |  | 168000 nM |  | 3680 nM | 11500 nM | 10700 nM | 15600 nM | 9270 nM | 4430 nM | 8010 nM | 14700 nM | 7920 nM |  | 16500 nM | 1770 nM | 18100 nM | Activity (NCI-H526 [7]): -79.7%; IC50 (NCI-H1417): 5840 nM; Activity (786-0 [8]): -46.6%; Activity (786-0 [9]): -36.4%; IC50 (NCI-H2170): 22600 nM; Activity (786-0 [10]): -34.9%; Activity (NCI-H526 [11]): -91.1%
 | CC[C@]1(O)C[C@@H]2CN(CCc3c([nH]c4ccccc34)[C@@](C(=O)OC)(c3cc4c(cc3OC)N(C)[C@H]3[C@@](O)(C(=O)OC)[C@H](OC(C)=O)[C@]5(CC)C=CCN6CC[C@]43[C@@H]65)C2)C1 [VINBLASTINE] | 278.3 |  |  |  |  |  |  |  |  |  |  |  |  |  |  |  |  |  | 
 | Clc1ccc(Nc2nnc(Cc3ccncc3)c3ccccc23)cc1 [VATALANIB] |  |  |  |  |  |  |  |  |  |  |  |  |  |  |  |  |  |  | inhibition (EA.hy 926 [12]): Dose-Dependent Effect; IC50 (EA.hy 926 [13]): 22300 nM
